In experiment [1] the test system is HCV genotype 1a (H77 strain) replicon in HUH-7 cells. The experiment can be described thus: HCV replicon luciferase reporter assay, genotype 1a. Type of experiment: cell-based. The settings on record: Hepatitis C virus, Huh-7, 72 h, HCV genotype 1a replicon luciferase, 3 days incubation. The procedure, abridged:
(§1)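 Replicon inhibition for both genotypes was measured as Renilla luciferase signal (EnduRen, 7.5 μM final, 2 h) after 3-day, 37° C exposure of replicon-bearing HUH-7 cells in 4% FCS DMEM, 0.5% DMSO. The 1b construct carries S1179I; the 1a H77 construct carries P1496L and S2204I. Twenty-point, 3-fold dilutions were fitted four-parametrically for EC50, and CC50 was taken from multiplexed Cell Titer-Blue.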

Experiment [2] relates to HCV genotype 1b (Con1) replicon in HUH-7 cells. Nature of the experiment: HCV replicon luciferase reporter assay, genotype 1b. Type of experiment: cell-based. The settings on record: Hepatitis C virus, Huh-7, 72 h, HCV genotype 1b replicon luciferase, 3 days incubation. The procedure, abridged:
as §1

Molecules are shown by their SMILES. Like-named read-outs stand apart in the source and are kept apart here.

One may read the EC50 as the midpoint of the concentration-response curve. With `C[C@H]1CC/C=C\[C@@H]2C[C@@]2(C(=O)NS(=O)(=O)C2(CF)CC2)NC(=O)[C@@H]2C[C@@H](Oc3nccc4c5c(ccc34)OCCO5)CN2C(=O)[C@@H](NC(=O)OC(C)(C)C(F)(F)F)[C@H](C)C1` [Compound 5322, 1,1,1-trifluoro-2-methylpropan-2-yl((2R,6S,7R,9S,13aS,14aR,16aS,Z)-2-((2,3-dihydro-[1,4]dioxino[2,3-f]isoquinolin-7-yl)oxy)-14a-(((1-(fluoromethyl)cyclopropyl)sulfonyl)carbamoyl)-7,9-dimethyl-5,16-dioxo-1,2,3,5,6,7,8,9,10,11,13a,14,14a,15,16,16a-hexadecahydrocyclopropa[e]pyrrolo[1,2-a][1,4]diazacyclopentadecin-6-yl)carbamate], the EC50 was less than 5.46 nM in experiment [1] (read-out: LE_1a (EC50, range)) and less than 5.46 nM in experiment [2] (read-out: LE_1b (EC50, range)).
In the case of `C[C@@H]1CC/C=C\[C@@H]2C[C@@]2(C(=O)NS(=O)(=O)C2(CF)CC2)NC(=O)[C@@H]2C[C@@H](Oc3nccc4c5c(ccc34)OCCO5)CN2C(=O)[C@@H](NC(=O)OC(C)(C)C(F)(F)F)[C@H](C)C1` [Compound 5323, 1,1,1-trifluoro-2-methylpropan-2-yl((2R,6S,7R,9R,13aS,14aR,16aS,Z)-2-((2,3-dihydro-[1,4]dioxino[2,3-f]isoquinolin-7-yl)oxy)-14a-(((1-(fluoromethyl)cyclopropyl)sulfonyl)carbamoyl)-7,9-dimethyl-5,16-dioxo-1,2,3,5,6,7,8,9,10,11,13a,14,14a,15,16,16a-hexadecahydrocyclopropa[e]pyrrolo[1,2-a][1,4]diazacyclopentadecin-6-yl)carbamate], the concentration for a half-maximal effect (EC50) in experiment [1] (read-out: LE_1a (EC50, range)) is less than 5.46 nM; in experiment [2] (read-out: LE_1b (EC50, range)) it was less than 5.46 nM.
As for `CC[C@@H]1C[C@H](C)CC/C=C\[C@@H]2C[C@@]2(C(=O)NS(=O)(=O)C2(C)CC2)NC(=O)[C@@H]2C[C@@H](Oc3nccc4c5c(ccc34)N(C)CCO5)CN2C(=O)[C@H]1NC(=O)OC(C)(C)C(F)(F)F` [Compound 5326, 1,1,1-trifluoro-2-methylpropan-2-yl((2R,6S,7R,9R,13aS,14aR,16aS,Z)-7-ethyl-9-methyl-2-((4-methyl-3,4-dihydro-2H-[1,4]oxazino[2,3-f]isoquinolin-7-yl)oxy)-14a-(((1-methylcyclopropyl)sulfonyl)carbamoyl)-5,16-dioxo-1,2,3,5,6,7,8,9,10,11,13a,14,14a,15,16,16a-hexadecahydrocyclopropa[e]pyrrolo[1,2-a][1,4]diazacyclopentadecin-6-yl)carbamate], the EC50 in experiment [1] (read-out: LE_1a (EC50, range)) is less than 5.46 nM; in experiment [2] (read-out: LE_1b (EC50, range)), less than 5.46 nM.
With `CC[C@@H]1C[C@H](C)CC/C=C\[C@@H]2C[C@@]2(C(=O)NS(=O)(=O)C2(C)CC2)NC(=O)[C@@H]2C[C@@H](Oc3nccc4c5c(ccc34)N(C)CCO5)CN2C(=O)[C@H]1NC(=O)OC(C)(C)C(C)(F)F` [Compound 5328, 3,3-difluoro-2-methylbutan-2-yl((2R,6S,7R,9R,13aS,14aR,16aS,Z)-7-ethyl-9-methyl-2-((4-methyl-3,4-dihydro-2H-[1,4]oxazino[2,3-f]isoquinolin-7-yl)oxy)-14a-(((1-methylcyclopropyl)sulfonyl)carbamoyl)-5,16-dioxo-1,2,3,5,6,7,8,9,10,11,13a,14,14a,15,16,16a-hexadecahydrocyclopropa[e]pyrrolo[1,2-a][1,4]diazacyclopentadecin-6-yl)carbamate], the EC50 is less than 5.46 nM in experiment [1] (read-out: LE_1a (EC50, range)) and less than 5.46 nM in experiment [2] (read-out: LE_1b (EC50, range)).
Consider `CC[C@@H]1C[C@H](C)CC/C=C\[C@@H]2C[C@@]2(C(=O)NS(=O)(=O)C2(C)CC2)NC(=O)[C@@H]2C[C@@H](Oc3nccc4c5c(ccc34)N(C)CCO5)CN2C(=O)[C@H]1NC(=O)OC(C)(C)C` [Compound 5330, tert-butyl ((2R,6S,7R,9R,13aS,14aR,16aS,Z)-7-ethyl-9-methyl-2-((4-methyl-3,4-dihydro-2H-[1,4]oxazino[2,3-f]isoquinolin-7-yl)oxy)-14a-(((1-methylcyclopropyl)sulfonyl)carbamoyl)-5,16-dioxo-1,2,3,5,6,7,8,9,10,11,13a,14,14a,15,16,16a-hexadecahydrocyclopropa[e]pyrrolo[1,2-a][1,4]diazacyclopentadecin-6-yl)carbamate], for which the EC50 in experiment [1] (read-out: LE_1a (EC50, range)) was less than 5.46 nM; in experiment [2] (read-out: LE_1b (EC50, range)) it was less than 5.46 nM.
On to `CC[C@@H]1C[C@@H](C)CC/C=C\[C@@H]2C[C@@]2(C(=O)NS(=O)(=O)C2(C)CC2)NC(=O)[C@@H]2C[C@@H](Oc3nccc4c5c(ccc34)OCCO5)CN2C(=O)[C@H]1NC(=O)OC(C)(C)C(C)(F)F` [Compound 5331, 3,3-difluoro-2-methylbutan-2-yl((2R,6S,7R,9S,13aS,14aR,16aS,Z)-2-((2,3-dihydro-[1,4]dioxino[2,3-f]isoquinolin-7-yl)oxy)-7-ethyl-9-methyl-14a-(((1-methylcyclopropyl)sulfonyl)carbamoyl)-5,16-dioxo-1,2,3,5,6,7,8,9,10,11,13a,14,14a,15,16,16a-hexadecahydrocyclopropa[e]pyrrolo[1,2-a][1,4]diazacyclopentadecin-6-yl)carbamate], for which the concentration giving a half-maximal response (EC50) is 12.8 nM in experiment [1] (read-out: LE_1a (EC50)); 4.82 to 103 nM in experiment [1] (read-out: LE_1a (EC50, range)); 3.94 nM in experiment [2] (read-out: LE_1b (EC50)); less than 5.46 nM in experiment [2] (read-out: LE_1b (EC50, range)).
For the molecule `CC[C@@H]1C[C@H](C)CC/C=C\[C@@H]2C[C@@]2(C(=O)NS(=O)(=O)C2(C)CC2)NC(=O)[C@@H]2C[C@@H](Oc3nccc4c5c(ccc34)OCCO5)CN2C(=O)[C@H]1NC(=O)OC(C)(C)C(C)(F)F` [Compound 5332, 3,3-difluoro-2-methylbutan-2-yl((2R,6S,7R,9R,13aS,14aR,16aS,Z)-2-((2,3-dihydro-[1,4]dioxino[2,3-f]isoquinolin-7-yl)oxy)-7-ethyl-9-methyl-14a-(((1-methylcyclopropyl)sulfonyl)carbamoyl)-5,16-dioxo-1,2,3,5,6,7,8,9,10,11,13a,14,14a,15,16,16a-hexadecahydrocyclopropa[e]pyrrolo[1,2-a][1,4]diazacyclopentadecin-6-yl)carbamate], the EC50 was less than 5.46 nM in experiment [1] (read-out: LE_1a (EC50, range)) and less than 5.46 nM in experiment [2] (read-out: LE_1b (EC50, range)).
As to `CC[C@@H]1C[C@@H](C)CC/C=C\[C@@H]2C[C@@]2(C(=O)NS(=O)(=O)C2(C)CC2)NC(=O)[C@@H]2C[C@@H](Oc3nccc4c5c(ccc34)OCCO5)CN2C(=O)[C@H]1NC(=O)OC(C)(C)C(F)(F)F` [Compound 5333, 1,1,1-trifluoro-2-methylpropan-2-yl((2R,6S,7R,9S,13aS,14aR,16aS,Z)-2-((2,3-dihydro-[1,4]dioxino[2,3-f]isoquinolin-7-yl)oxy)-7-ethyl-9-methyl-14a-(((1-methylcyclopropyl)sulfonyl)carbamoyl)-5,16-dioxo-1,2,3,5,6,7,8,9,10,11,13a,14,14a,15,16,16a-hexadecahydrocyclopropa[e]pyrrolo[1,2-a][1,4]diazacyclopentadecin-6-yl)carbamate], the concentration giving a half-maximal response (EC50) in experiment [1] (read-out: LE_1a (EC50, range)) lay in the range of 4.82 to 103 nM; in experiment [2] (read-out: LE_1b (EC50, range)), 4.82 to 103 nM.
Consider `CC[C@@H]1C[C@H](C)CC/C=C\[C@@H]2C[C@@]2(C(=O)NS(=O)(=O)C2(C)CC2)NC(=O)[C@@H]2C[C@@H](Oc3nccc4c5c(ccc34)OCCO5)CN2C(=O)[C@H]1NC(=O)OC(C)(C)C(F)(F)F` [Compound 5334, 1,1,1-trifluoro-2-methylpropan-2-yl((2R,6S,7R,9R,13aS,14aR,16aS,Z)-2-((2,3-dihydro-[1,4]dioxino[2,3-f]isoquinolin-7-yl)oxy)-7-ethyl-9-methyl-14a-(((1-methylcyclopropyl)sulfonyl)carbamoyl)-5,16-dioxo-1,2,3,5,6,7,8,9,10,11,13a,14,14a,15,16,16a-hexadecahydrocyclopropa[e]pyrrolo[1,2-a][1,4]diazacyclopentadecin-6-yl)carbamate], for which the EC50 in experiment [1] (read-out: LE_1a (EC50, range)) was less than 5.46 nM; in experiment [2] (read-out: LE_1b (EC50, range)), less than 5.46 nM.
With `CC[C@@H]1C[C@@H](C)CC/C=C\[C@@H]2C[C@@]2(C(=O)NS(=O)(=O)C2CC2)NC(=O)[C@@H]2C[C@@H](Oc3nccc4c5c(ccc34)OCCO5)CN2C(=O)[C@H]1NC(=O)OC(C)(C)C(C)(F)F` [Compound 5335, 3,3-difluoro-2-methylbutan-2-yl((2R,6S,7R,9S,13aS,14aR,16aS,Z)-14a-((cyclopropylsulfonyl)carbamoyl)-2-((2,3-dihydro-[1,4]dioxino[2,3-f]isoquinolin-7-yl)oxy)-7-ethyl-9-methyl-5,16-dioxo-1,2,3,5,6,7,8,9,10,11,13a,14,14a,15,16,16a-hexadecahydrocyclopropa[e]pyrrolo[1,2-a][1,4]diazacyclopentadecin-6-yl)carbamate], the EC50 in experiment [1] (read-out: LE_1a (EC50)) is 6.5 nM; in experiment [1] (read-out: LE_1a (EC50, range)), 4.82 to 103 nM; in experiment [2] (read-out: LE_1b (EC50)), 2.03 nM; in experiment [2] (read-out: LE_1b (EC50, range)), less than 5.46 nM.
With `CC[C@@H]1C[C@H](C)CC/C=C\[C@@H]2C[C@@]2(C(=O)NS(=O)(=O)C2CC2)NC(=O)[C@@H]2C[C@@H](Oc3nccc4c5c(ccc34)OCCO5)CN2C(=O)[C@H]1NC(=O)OC(C)(C)C(C)(F)F` [Compound 5336, 3,3-difluoro-2-methylbutan-2-yl((2R,6S,7R,9R,13aS,14aR,16aS,Z)-14a-((cyclopropylsulfonyl)carbamoyl)-2-((2,3-dihydro-[1,4]dioxino[2,3-f]isoquinolin-7-yl)oxy)-7-ethyl-9-methyl-5,16-dioxo-1,2,3,5,6,7,8,9,10,11,13a,14,14a,15,16,16a-hexadecahydrocyclopropa[e]pyrrolo[1,2-a][1,4]diazacyclopentadecin-6-yl)carbamate], the EC50 was less than 5.46 nM in experiment [1] (read-out: LE_1a (EC50, range)) and less than 5.46 nM in experiment [2] (read-out: LE_1b (EC50, range)).

For the origin of these results see patent publication US9499550B2 (BRISTOL-MYERS SQUIBB COMPANY, priority 2012, dated 2016).
